Experimental data published in ChEMBL document CHEMBL3808337, “Rapid Discovery of Pyrido[3,4-d]pyrimidine Inhibitors of Monopolar Spindle Kinase 1 (MPS1) Using a Structure-Based Hybridization Approach” (J Med Chem, 2016).
Each block holds one compound with its values, some of them ahead of it.

Legend:
[1] = Drug metabolism in CD1 mouse liver microsomes at 10 uM after 30 mins by LCMS analysis; format: ADME; details: read-out: Drug metabolism
[2] = Antiproliferative activity against human HCT116 cells assessed as cell viability after 72 hrs by MTT assay; format: functional; details: HCT-116, 72 h
[3] = target: CDK2/Cyclin A2 (Homo sapiens, UniProt P24941)
[4] = AUC in Sprague-Dawley rat blood at 5 mg/kg, po after 24 hrs by ESI-LCMS/MS analysis; format: ADME, organism-based; design: time < 24 hr, dose 5 mg/kg, route oral
[5] = target: T1, Cytochrome P450 2C8 (Homo sapiens, UniProt P10632); test: Inhibition of CYP2C8 (unknown origin); format: ADME
T1 sequence (P10632 whole entry): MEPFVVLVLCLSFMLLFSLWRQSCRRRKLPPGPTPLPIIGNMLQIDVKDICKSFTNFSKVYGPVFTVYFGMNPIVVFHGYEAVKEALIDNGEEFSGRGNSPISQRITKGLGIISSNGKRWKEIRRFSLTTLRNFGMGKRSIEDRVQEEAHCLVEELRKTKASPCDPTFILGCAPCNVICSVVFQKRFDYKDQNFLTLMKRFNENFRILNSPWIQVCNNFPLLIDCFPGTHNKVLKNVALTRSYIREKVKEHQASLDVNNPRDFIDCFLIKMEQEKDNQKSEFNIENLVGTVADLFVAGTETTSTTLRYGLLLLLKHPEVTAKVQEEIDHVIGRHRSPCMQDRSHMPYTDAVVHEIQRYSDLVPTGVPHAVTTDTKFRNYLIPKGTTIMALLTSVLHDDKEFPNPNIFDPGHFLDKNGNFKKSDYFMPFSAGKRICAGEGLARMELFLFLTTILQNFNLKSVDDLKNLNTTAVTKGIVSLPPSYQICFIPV

[6] = target: Mitogen-activated protein kinase 8 (Homo sapiens, UniProt P45983); test: Inhibition of human full length recombinant His-tagged JNK1 expressed in baculovirus by lanthascreen assay
Sequence of Mitogen-activated protein kinase 8 (P45983 whole entry): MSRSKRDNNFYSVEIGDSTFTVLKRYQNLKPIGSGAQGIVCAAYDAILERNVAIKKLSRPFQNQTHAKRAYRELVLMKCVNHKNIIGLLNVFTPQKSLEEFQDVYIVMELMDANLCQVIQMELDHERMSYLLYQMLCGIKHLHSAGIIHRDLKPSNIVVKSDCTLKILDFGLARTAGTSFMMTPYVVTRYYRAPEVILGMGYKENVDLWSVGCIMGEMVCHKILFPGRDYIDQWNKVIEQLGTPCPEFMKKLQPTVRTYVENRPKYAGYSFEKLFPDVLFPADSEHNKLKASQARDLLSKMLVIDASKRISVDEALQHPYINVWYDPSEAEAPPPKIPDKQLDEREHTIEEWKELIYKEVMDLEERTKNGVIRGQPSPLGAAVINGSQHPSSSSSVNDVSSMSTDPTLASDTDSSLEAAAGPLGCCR

[7] = Half life in Sprague-Dawley rat blood at 5 mg/kg, iv or po […] by ESI-LCMS/MS analysis; format: ADME, organism-based
[8] = Oral bioavailability in Balb/C mouse at 5 mg/kg after 24 hrs by ESI-LCMS/MS analysis; format: ADME, organism-based; details: in vivo
[9] = target: Serine/threonine-protein kinase PLK1 (Homo sapiens, UniProt P53350); test: Inhibition of human full length recombinant His-tagged PLK1 expressed in baculovirus by Z'-LYTE assay
Sequence of Serine/threonine-protein kinase PLK1 (P53350 whole entry): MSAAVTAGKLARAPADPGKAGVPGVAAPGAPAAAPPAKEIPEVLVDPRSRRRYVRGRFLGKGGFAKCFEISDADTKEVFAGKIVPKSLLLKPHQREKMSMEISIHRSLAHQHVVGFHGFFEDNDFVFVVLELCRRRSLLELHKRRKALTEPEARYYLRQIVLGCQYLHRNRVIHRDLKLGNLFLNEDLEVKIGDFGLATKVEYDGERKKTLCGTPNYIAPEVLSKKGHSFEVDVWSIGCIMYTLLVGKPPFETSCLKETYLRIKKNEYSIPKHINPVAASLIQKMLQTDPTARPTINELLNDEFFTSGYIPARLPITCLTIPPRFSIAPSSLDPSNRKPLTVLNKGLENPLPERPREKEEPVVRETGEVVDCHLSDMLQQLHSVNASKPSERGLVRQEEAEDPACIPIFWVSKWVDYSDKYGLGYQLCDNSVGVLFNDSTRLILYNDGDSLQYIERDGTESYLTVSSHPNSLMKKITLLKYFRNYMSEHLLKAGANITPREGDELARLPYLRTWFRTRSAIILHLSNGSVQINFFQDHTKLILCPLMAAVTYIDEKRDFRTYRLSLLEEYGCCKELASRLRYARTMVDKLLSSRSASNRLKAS

[10] = Antiproliferative activity against human PNT2 cells assessed as cell viability after 72 hrs by MTT assay; format: functional; details: PNT2, 72 h
[11] = Antiproliferative activity against human RMG-1 cells assessed as cell viability after 72 hrs by MTT assay; format: functional; details: RMG-I
[12] = Antiproliferative activity against human CAL51 cells assessed as cell viability after 72 hrs by MTT assay; format: functional; details: CAL-51, 72 h
[13] = target: Mitogen-activated protein kinase 9 (Homo sapiens, UniProt P45984); test: Inhibition of human full length recombinant His-tagged JNK2 expressed in baculovirus by lanthascreen assay
Sequence of Mitogen-activated protein kinase 9 (P45984 whole entry): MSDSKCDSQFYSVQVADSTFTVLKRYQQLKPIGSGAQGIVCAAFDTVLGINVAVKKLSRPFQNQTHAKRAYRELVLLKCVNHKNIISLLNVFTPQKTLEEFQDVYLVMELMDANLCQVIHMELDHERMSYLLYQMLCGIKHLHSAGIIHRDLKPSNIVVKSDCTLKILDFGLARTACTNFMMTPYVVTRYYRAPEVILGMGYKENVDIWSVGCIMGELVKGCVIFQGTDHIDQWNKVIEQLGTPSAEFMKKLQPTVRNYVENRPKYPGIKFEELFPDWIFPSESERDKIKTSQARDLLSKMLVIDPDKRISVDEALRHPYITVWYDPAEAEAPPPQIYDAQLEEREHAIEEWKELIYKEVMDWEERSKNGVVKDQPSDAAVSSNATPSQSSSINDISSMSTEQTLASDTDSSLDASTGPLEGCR

[14] = Antiproliferative activity against human MIAPaCa2 cells assessed as cell viability after 72 hrs by MTT assay; format: functional; details: MIA PaCa-2, 72 h
[15] = Drug metabolism in human liver microsomes at 10 uM after 30 mins by LCMS analysis; format: ADME; details: read-out: Drug metabolism
[16] = target: T2, Cytochrome P450 2B6 (Homo sapiens, UniProt P20813); test: Inhibition of CYP2B6 (unknown origin); format: ADME
T2 sequence (P20813 whole entry): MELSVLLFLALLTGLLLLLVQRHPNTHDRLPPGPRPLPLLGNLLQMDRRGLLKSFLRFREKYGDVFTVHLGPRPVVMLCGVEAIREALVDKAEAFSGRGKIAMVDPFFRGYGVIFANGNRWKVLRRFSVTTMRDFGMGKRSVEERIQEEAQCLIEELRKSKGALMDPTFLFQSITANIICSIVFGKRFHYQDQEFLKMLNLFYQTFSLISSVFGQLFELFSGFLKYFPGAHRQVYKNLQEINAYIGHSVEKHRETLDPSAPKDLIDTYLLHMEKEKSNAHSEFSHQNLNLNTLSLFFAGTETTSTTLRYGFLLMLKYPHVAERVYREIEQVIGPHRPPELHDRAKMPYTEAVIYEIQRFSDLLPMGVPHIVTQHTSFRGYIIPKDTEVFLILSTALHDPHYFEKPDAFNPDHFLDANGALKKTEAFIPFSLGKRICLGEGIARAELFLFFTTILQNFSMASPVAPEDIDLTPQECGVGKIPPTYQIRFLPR

[17] = target: T3, Cytochrome P450 2A6 (Homo sapiens, UniProt P11509); test: Inhibition of CYP2A6 (unknown origin); format: ADME
T3 sequence (P11509 whole entry): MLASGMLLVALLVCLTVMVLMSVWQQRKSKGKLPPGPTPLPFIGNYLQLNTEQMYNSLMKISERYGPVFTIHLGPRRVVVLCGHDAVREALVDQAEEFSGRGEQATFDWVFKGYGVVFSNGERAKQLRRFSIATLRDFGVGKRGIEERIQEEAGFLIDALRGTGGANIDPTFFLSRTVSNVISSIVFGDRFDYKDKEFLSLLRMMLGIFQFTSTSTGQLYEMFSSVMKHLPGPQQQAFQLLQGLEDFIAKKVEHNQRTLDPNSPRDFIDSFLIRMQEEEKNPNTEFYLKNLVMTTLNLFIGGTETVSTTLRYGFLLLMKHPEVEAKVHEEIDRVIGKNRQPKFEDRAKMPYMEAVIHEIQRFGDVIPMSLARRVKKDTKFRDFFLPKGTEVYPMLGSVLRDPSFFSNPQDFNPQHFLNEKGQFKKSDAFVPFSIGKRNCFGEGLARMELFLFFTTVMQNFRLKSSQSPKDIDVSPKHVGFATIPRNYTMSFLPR

[18] = target: Voltage-gated inwardly rectifying potassium channel KCNH2 (Homo sapiens, UniProt Q12809); test: Inhibition of human ERG at 1 to 10 uM
Sequence of Voltage-gated inwardly rectifying potassium channel KCNH2 (Q12809 whole entry): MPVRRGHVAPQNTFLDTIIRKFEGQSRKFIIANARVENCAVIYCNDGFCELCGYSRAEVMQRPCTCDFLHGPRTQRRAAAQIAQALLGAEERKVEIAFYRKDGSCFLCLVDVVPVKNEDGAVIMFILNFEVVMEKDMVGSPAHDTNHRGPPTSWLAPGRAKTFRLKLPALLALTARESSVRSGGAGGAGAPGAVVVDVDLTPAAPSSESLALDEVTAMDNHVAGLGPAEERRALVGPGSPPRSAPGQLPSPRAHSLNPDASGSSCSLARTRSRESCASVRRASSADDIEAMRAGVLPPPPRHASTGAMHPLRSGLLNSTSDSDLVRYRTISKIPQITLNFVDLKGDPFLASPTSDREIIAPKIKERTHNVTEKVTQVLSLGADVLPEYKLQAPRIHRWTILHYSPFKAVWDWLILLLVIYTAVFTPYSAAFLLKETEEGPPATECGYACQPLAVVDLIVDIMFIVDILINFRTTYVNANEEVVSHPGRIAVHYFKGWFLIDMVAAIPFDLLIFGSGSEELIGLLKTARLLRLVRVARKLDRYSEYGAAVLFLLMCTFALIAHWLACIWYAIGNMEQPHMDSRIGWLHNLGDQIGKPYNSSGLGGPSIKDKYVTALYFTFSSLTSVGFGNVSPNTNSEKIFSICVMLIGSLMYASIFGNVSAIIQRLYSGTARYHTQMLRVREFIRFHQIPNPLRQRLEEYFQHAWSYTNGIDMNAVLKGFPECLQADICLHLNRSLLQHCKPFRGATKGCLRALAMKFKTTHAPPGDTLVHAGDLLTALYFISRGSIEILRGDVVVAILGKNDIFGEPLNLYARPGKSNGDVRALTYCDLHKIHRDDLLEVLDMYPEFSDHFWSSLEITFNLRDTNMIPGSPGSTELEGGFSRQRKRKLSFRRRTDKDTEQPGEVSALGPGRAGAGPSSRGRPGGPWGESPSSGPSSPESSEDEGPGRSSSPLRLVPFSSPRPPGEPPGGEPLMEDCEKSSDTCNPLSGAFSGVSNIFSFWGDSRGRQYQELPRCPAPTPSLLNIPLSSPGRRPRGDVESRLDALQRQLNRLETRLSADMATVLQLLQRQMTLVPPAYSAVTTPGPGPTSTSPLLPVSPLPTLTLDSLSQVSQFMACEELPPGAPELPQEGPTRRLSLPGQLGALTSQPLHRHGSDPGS

[19] = Cmax in Sprague-Dawley rat blood at 5 mg/kg, po after 24 hrs by ESI-LCMS/MS analysis; format: ADME, organism-based; design: dose 5 mg/kg, route oral
[20] = Cmax in Balb/C mouse blood at 5 mg/kg, po after 24 hrs by ESI-LCMS/MS analysis; format: ADME, organism-based; design: dose 5 mg/kg, route oral
[21] = Clearance in Balb/C mouse blood at 5 mg/kg, iv or po after 24 hrs by ESI-LCMS/MS analysis; format: ADME, organism-based
[22] = Volume of distribution at steady state in Sprague-Dawley rat at 5 mg/kg, iv or po after 24 hrs by ESI-LCMS/MS analysis; format: ADME, organism-based; details: in vivo, read-out: Vdss
[23] = Volume of distribution at steady state in Balb/C mouse at 5 mg/kg, iv or po after 24 hrs by ESI-LCMS/MS analysis; format: ADME, organism-based; details: in vivo, read-out: Vdss
[24] = Half life in Balb/C mouse blood at 5 mg/kg, iv or po after 24 hrs by ESI-LCMS/MS analysis; format: ADME, organism-based
[25] = Oral bioavailability in Sprague-Dawley rat at 5 mg/kg after 24 hrs by ESI-LCMS/MS analysis; format: ADME, organism-based; details: in vivo
[26] = target: T4, Cytochrome P450 3A4 (Homo sapiens, UniProt P08684); test: Inhibition of CYP3A4T (unknown origin); format: ADME
T4 sequence (P08684 whole entry): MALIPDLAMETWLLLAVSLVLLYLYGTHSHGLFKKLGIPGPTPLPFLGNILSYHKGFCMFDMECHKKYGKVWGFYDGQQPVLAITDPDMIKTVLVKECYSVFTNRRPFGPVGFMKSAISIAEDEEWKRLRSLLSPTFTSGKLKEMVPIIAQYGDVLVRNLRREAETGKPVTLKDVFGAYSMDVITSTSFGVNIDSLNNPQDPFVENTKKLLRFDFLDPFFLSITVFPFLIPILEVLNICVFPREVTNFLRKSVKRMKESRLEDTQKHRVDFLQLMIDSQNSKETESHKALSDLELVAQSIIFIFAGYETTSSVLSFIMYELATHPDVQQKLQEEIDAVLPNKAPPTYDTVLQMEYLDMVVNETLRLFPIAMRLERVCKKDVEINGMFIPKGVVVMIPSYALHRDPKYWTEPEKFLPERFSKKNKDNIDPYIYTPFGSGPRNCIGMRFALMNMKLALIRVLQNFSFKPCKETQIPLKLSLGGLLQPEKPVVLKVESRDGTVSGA

[27] = target: T5, Cytochrome P450 1A2 (Homo sapiens, UniProt P05177); test: Inhibition of CYP1A2 (unknown origin); format: ADME; details: human
T5 sequence (P05177 whole entry): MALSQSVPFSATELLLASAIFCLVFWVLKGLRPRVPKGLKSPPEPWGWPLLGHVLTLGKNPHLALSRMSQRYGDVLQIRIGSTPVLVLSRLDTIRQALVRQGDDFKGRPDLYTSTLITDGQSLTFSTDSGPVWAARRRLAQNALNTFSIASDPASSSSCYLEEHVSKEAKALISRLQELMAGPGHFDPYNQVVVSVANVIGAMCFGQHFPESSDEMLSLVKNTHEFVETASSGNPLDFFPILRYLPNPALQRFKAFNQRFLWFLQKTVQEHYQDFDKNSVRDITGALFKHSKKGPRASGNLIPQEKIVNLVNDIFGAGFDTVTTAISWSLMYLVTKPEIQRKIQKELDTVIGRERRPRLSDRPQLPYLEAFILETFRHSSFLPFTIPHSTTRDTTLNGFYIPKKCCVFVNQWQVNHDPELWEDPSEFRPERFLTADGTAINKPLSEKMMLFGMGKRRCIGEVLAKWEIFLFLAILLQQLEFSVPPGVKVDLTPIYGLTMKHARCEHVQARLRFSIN

[28] = target: Cytochrome P450 2C19 (Homo sapiens, UniProt P33261); test: Inhibition of CYP2C19 (unknown origin); format: ADME; details: human
Sequence of Cytochrome P450 2C19 (P33261 whole entry): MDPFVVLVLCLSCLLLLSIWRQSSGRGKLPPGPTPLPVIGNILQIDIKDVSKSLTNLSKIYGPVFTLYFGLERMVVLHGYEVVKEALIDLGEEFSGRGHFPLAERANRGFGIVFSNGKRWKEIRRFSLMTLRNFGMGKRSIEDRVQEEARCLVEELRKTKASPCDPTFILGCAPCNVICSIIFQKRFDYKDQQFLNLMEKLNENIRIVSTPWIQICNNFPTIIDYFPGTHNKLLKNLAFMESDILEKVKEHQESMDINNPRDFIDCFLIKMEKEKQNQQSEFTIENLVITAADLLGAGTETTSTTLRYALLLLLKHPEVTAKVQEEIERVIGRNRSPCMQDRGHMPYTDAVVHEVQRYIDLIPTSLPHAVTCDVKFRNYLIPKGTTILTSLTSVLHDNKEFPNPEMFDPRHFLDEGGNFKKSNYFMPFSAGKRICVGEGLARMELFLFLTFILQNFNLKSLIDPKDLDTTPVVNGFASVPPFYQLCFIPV

[29] = Plasma protein binding in Sprague-Dawley rat at 5 mg/kg, iv or po after 24 hrs by ESI-LCMS/MS analysis; format: ADME, organism-based; details: read-out: PPB (converted)
[30] = target: T4, Cytochrome P450 3A4; test: Inhibition of CYP3A4 (unknown origin) using midazolam as substrate; format: ADME
[31] = Drug metabolism in Sprague-Dawley rat liver microsomes at 10 uM after 30 mins by LCMS analysis; format: ADME; details: read-out: Drug metabolism
[32] = target: T4, Cytochrome P450 3A4; test: Inhibition of CYP3A4 (unknown origin) using testosterone as substrate; format: ADME
[33] = Antiproliferative activity against human CAL27 cells assessed as cell viability after 72 hrs by MTT assay; format: functional; details: CAL-27, 72 h
[34] = Antiproliferative activity against human SW620 cells assessed as cell viability after 72 hrs by MTT assay; format: functional; details: SW-620, 72 h
[35] = target: Cytochrome P450 2C9 (Homo sapiens, UniProt P11712); test: Inhibition of CYP2C9 (unknown origin); format: ADME; details: human
Sequence of Cytochrome P450 2C9 (P11712 whole entry): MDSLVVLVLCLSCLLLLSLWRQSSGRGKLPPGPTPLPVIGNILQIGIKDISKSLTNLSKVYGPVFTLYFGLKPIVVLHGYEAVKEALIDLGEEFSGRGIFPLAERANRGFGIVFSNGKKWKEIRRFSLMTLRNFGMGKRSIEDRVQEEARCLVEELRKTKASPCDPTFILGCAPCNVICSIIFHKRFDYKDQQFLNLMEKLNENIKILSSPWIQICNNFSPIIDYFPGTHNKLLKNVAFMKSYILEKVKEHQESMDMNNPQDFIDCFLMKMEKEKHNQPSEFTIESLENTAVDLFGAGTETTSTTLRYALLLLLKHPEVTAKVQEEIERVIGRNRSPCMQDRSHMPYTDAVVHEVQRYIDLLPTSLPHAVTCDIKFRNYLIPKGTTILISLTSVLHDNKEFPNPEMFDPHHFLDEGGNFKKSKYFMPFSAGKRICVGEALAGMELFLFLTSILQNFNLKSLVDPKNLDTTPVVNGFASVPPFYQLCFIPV

[36] = Plasma protein binding in Balb/C mouse at 5 mg/kg, iv or po after 24 hrs by ESI-LCMS/MS analysis; format: ADME, organism-based; details: read-out: PPB (converted)
[37] = AUC in Balb/C mouse blood at 5 mg/kg, po after 24 hrs by ESI-LCMS/MS analysis; format: ADME, organism-based; design: time < 24 hr, dose 5 mg/kg, route oral
[38] = Clearance in Sprague-Dawley rat blood at 5 mg/kg, iv or po after 24 hrs by ESI-LCMS/MS analysis; format: ADME, organism-based

SMILES: COCCOc1cc(-c2cnn(C)c2)ccc1Nc1ncc2ccnc(-c3cnn(C)c3)c2n1
- metabolised at 0.5 h, 10 µM [1]: 59%

SMILES: COc1cc(-c2cnn(C)c2)ccc1Nc1ncc2ccnc(N[C@@H](C)C(C)(C)C)c2n1
- AUC at 24 h [4]: 9.3 µM·h
- inhibition (INH) [5]: Not Active
- IC50 [6]: 110 nM
- half-life [7]: 2.5 h
- metabolised at 0.5 h, 10 µM [1]: 27%
- bioavailability [8]: 68%
- IC50 [9]: > 100000 nM
- GI50 [10]: 3950 nM
- GI50 [11]: 110 nM
- GI50 [12]: 68 nM
- IC50 [13]: 220 nM
- GI50 [14]: 250 nM
- metabolised at 0.5 h, 10 µM [15]: 70%
- inhibition (INH) [16]: Not Active
- inhibition (INH) [17]: Not Active
- inhibition (INH) [18]: Not Active
- Cmax [19]: 560 nM
- Cmax [20]: 770 nM
- clearance [21]: 28 mL/min/kg
- Vd [22]: 4.64 L/kg
- Vd [23]: 14.7 L/kg
- half-life [24]: 8.2 h
- bioavailability [25]: 100%
- inhibition (INH) [26]: Not Active
- inhibition (INH) [27]: Not Active
- inhibition (INH) [28]: Not Active
- fraction unbound at 24 h [29]: 0.0003
- inhibition (INH) [30]: Not Active
- metabolised at 0.5 h, 10 µM [31]: 24%
- inhibition (INH) [32]: Not Active
- GI50 [33]: 230 nM
- GI50 [34]: 65 nM
- inhibition (INH) [35]: Not Active
- fraction unbound at 24 h [36]: 0.0002
- AUC at 24 h [37]: 4.8 µM·h
- GI50 [2]: 160 nM
- clearance [38]: 24 mL/min/kg

SMILES: COc1cc(-c2cnn(C)c2)ccc1Nc1ncc2ccnc(SC3CCCCC3)c2n1
- IC50 [3]: > 10000 nM

SMILES: CC(C)Oc1cc(-c2cnn(C)c2)ccc1Nc1ncc2ccnc(-c3cnn(C)c3)c2n1
- metabolised at 0.5 h, 10 µM [1]: 45%
- IC50 [3]: > 10000 nM

Now from value to compound, other results behind:

- metabolised at 0.5 h, 10 µM [1]: 66%
SMILES: COc1cc(-c2cnn(C)c2)ccc1Nc1ncc2ccnc(NCC(C)C)c2n1
- GI50 [2]: 1100 nM

- IC50 [3]: 31100 nM
SMILES: COc1ccc(Nc2cc3c(-c4ccco4)cccc3cn2)cc1

- metabolised at 0.5 h, 10 µM [1]: 73%
SMILES: COc1cc(-c2cnn(C)c2)ccc1Nc1ncc2ccnc(-c3cnn(C)c3)c2n1

- metabolised at 0.5 h, 10 µM [1]: 33%
SMILES: COc1cc(-c2cnn(C)c2)ccc1Nc1ncc2ccnc(NCC3CC3)c2n1
- GI50 [2]: 320 nM

- IC50 [3]: 1220 nM
SMILES: COc1ccc(Nc2cc3c(-c4cnn(C)c4)cccc3cn2)cc1
